In patent US8642559B2, “C-terminal domain truncation of mGluR1α by calpain and uses thereof” (priority 2006, dated 2014):
“Also recorded” adds a separate entry of the source.

Assays:
[1] = tested on: cultured neurons; experiment: Blockade of NMDA neurotoxicity in cultured neurons (live/dead cell assay); type: cell-based; conditions: peptide 8 μM, pretreated 90 min; NMDA 50 μM 1 h; analyzed 12 h later
Procedure: In this figure, cultured neurons were pretreated with the tat-peptide for 90 min. They were then treated with NMDA (50 μM) for 1 h. They were analyzed 12 h later by live/dead cell assay (0.5 μM EthD-1 and 2 μM Calcein AM).

[2] = tested on: mGluR1α; experiment: In vivo truncation of mGluR1α in hippocampus after kainic acid injection; conditions: peptide i.p. 90 min before kainic acid 30 mg/kg s.c., mice
Procedure: (§1) The tat-peptide was injected i.p. 90 min before kainic acid injection. Note that the peptide had no effect on seizure intensity (bottom left).
The objective of this set of experiments was to verify that the feedback mechanism of the present invention could take place in vivo and participate in excitotoxicity. We used the kainic acid model of excitotoxicity, as this model has been widely used to study the mechanisms underlying in vivo excitotoxicity (Wang et al. Mol Neurobiol 31:3-16, 2005). Mice were injected with kainic acid and sacrificed at different times after injection. Levels of mGluR1α were determined in hippocampus with both Western blots and immunohistochemistry (FIG. 10).

[3] = tested on: hippocampal neurons; experiment: Kainic acid-induced neuronal damage (silver staining) and seizures in mice; type: in vivo
Procedure: as §1
They were sacrificed after 7 days and brains processed for silver staining, a marker of cell damage. Note the heavy labeling of the pyramidal cell layer in the KA alone group.
The effect of the tat-mGluR1 peptide on kainic acid-induced neuronal damage was also evaluated.

[4] = tested on: mGluR1; experiment: Brain membranes treated with purified calpain and calcium: mGluR1 truncation; type: biochemical; conditions: purified calpain, calcium
Procedure: (§2) As previously mentioned, calpain inhibitors were previously shown to exert neuroprotective effects in some models of neurodegeneration, and it could be argued that the effects of the tat-mGluR1 peptide we observed were due to some calpain inhibitor effects of the peptide. However, the inventors of the present invention have discovered that this is not likely the case. In particular, when brain membranes were treated with purified calpain in the presence of calcium, truncation of both mGluR1 and spectrin was observed. […] The inventors believe that the peptide acts as a calpain substrate competing with mGluR1 for calpain. The selective protection of tat-mGluR1 has the advantage that it may act as a selective blocking agent without disrupting calpain's other enzymatic activities. Thus, a blocking agent of the present invention will have the advantage of having reduced side-effect profile than calpain inhibitors.

[5] = tested on: spectrin; experiment: Brain membranes treated with purified calpain and calcium: spectrin degradation; type: biochemical; conditions: purified calpain, calcium
Procedure: as §2

[6] = tested on: cultured hippocampal slices; experiment: OGD-induced cell death in cultured hippocampal slices (LDH release, PI uptake); type: cell-based; conditions: 10 μM for 3 h before and during OGD (30 min); 3 h and 24 h after OGD
Procedure: Cultured slices were subjected to OGD for 30 min, and returned to normal glucose and oxygen conditions for 24 h. Neuronal damage was assessed by the propidium iodide (PI) uptake method, which labels damaged cells (a, b), and by LDH release in culture medium (c).
We used a well-known in vitro stroke model, combined oxygen/glucose deprivation in cultured hippocampal slices, to test the idea that the mechanism we have proposed, i.e., calpain-mediated truncation of mGluR1, accounts for neuronal death in stroke. Furthermore, we tested the neuroprotective effects of the tat-mGluR1 peptide in this stroke model. In this model, cultured hippocampal slices are treated for various periods of time (30-60 min) by changing the cultured medium to a medium without glucose and replacing the normal air/5% CO2 with nitrogen. After this period of time, slices are returned to normal glucose-containing medium and exposed to air/5% CO2 and are cultured for again various periods of time. Cell death is evaluated by measuring the amount of LDH release in the medium at various times, as well as by the extent of Propidium Iodide (PI) uptake in the cells (LDH release in the medium is an index of membrane damage, as LDH is a cytoplasmic enzyme; likewise, PI is generally not taken up by cells, except if the cell membrane is severely compromised).

[7] = tested on: mGluR1α; experiment: OGD-induced mGluR1 truncation in cultured hippocampal slices (immunoblot); type: cell-based; conditions: longer OGD (50-min), 6 or 24 hours recovery
Procedure: Cultured hippocampal slices were subjected to 50-min OGD and returned to normal culture condition for another 6 or 24 hours.

[8] = tested on: mGluR1α; experiment: Glutamate/NMDA-induced C-terminal truncation of mGluR1α in cultured cortical neurons (immunoblot); type: cell-based; conditions: 100 μM glutamate
Excerpt: (§3) Total cell lysates were separated by SDS-PAGE and probed with an antibody against the carboxyl terminus (residue 1142-1160) of mGluR1α. […] Total cell lysates were probed with an anti-myc antibody. […] Total cell lysates were probed with antibodies against mGluR5, G1uR2/3 and VGluT1 respectively.
Total cell lysate was collected immediately after treatment and subjected to SDS-PAGE and immunoblotting with an antibody against the carboxyl terminus (residues 1142-1160) of mGluR1α (FIG. 2A). […] Neurons were transfected with a calcium phosphate precipitation method modified for high transfection rate (Jian et al., Gene Ther 11:1301-1311, 2004).
Cortical neurons were treated with NMDA at the indicated concentrations for 1 h or treated with NMDA (10 μM) for the indicated times. Total cell lysates were separated by SDS-PAGE and probed with antibodies against mGluR1α1142-1160, Results were normalized over control values and are means±s.e.m. of 4 experiments.
To determine whether activation of mGluR1α itself was required for the truncation, two distinct mGluR1α antagonists were applied.
To further characterize NMDA-induced mGluR1α truncation, the concentration- and time-dependencies of the effects of NMDA were studied. Cortical neurons were first incubated with different concentrations of NMDA for a fixed period of time (1 hour) (FIG. 3F). […] In a following experiment, cortical neurons were incubated with 10 μM NMDA for different durations ranging from 1 to 60 min (FIG. 3G).
Cortical neurons were treated with NMDA (10 μM, 1 h). Total cell lysates were separated by SDS-PAGE and probed with antibodies against spectrin and mGluR1α1142-1160, respectively. Only the degradation bands of spectrin (spectrin DB, at ˜145 KD) are shown. […] In FIG. 4C, purified myc-mGluR1α was digested with μ-calpain at the indicated concentrations (U/ml) for 30 min. The digested material was processed for SDS-PAGE and subjected to silver staining or immunoblots with anti-myc or anti-mGluR1α1142-1160 antibodies. […] The 1st lane was the myc-mGluR1α immunoprecipitated from 293 cells; the 2nd and 3rd lanes were immunoprecipitated myc-mGluR1α digested with indicated concentration of calpain. […] FIG. 4F is the alignment of mGluR1 (902-941) and mGluR5 (889-927) surrounding the calpain cleavage site.
In this set of experiments, we determined which protease(s) mediated NMDA-induced truncation of mGluR1α. […] Cortical neurons were pretreated with a calpain inhibitor, the cell-permeable calpain-inhibitor III, or the caspase inhibitor cpm-VAD-CHO for 2 hours and then incubated in the absence or presence of 100 µM NMDA for 1 hour. […] To further confirm calpain activation by NMDA under our experimental conditions, we determined the levels of the calpain-specific spectrin degradation fragments.

[9] = tested on: mGluR5; experiment: mGluR5 levels in cortical neurons after glutamate (immunoblot); type: cell-based; conditions: 100 μM glutamate, 60 min
Excerpt: as §3

[10] = tested on: vesicular glutamate transporter (vGluT1); experiment: vGluT1 levels in cortical neurons after glutamate (immunoblot); type: cell-based; conditions: 100 μM glutamate, 60 min
Excerpt: as §3
To test for the specificity of glutamate-mediated truncation of mGluR1α, immunoblots were also probed with an antibody against mGluR5, another member of group I mGluRs, which shares a high similarity with mGluR1α.

[11] = tested on: cortical neurons; experiment: Glutamate toxicity in transfected GFP-expressing cortical neurons (EthD-1 staining); type: cell-based; conditions: 25 μM glutamate 1 hour, 12 hours later
Excerpt: In FIGS. 8a and b, cortical neurons were co-transfected with green fluorescent protein (GFP) and vector DNA, myc-mGluR1α or myc-mGluR1α936Δ, respectively. […] Twelve hours later, neurons were stained with EthD-1 to label dead cells. Arrowheads in FIG. 8a indicate EthD-1 positive GFP-expressing neurons. * p<0.05. FIGS. 8c and d are representative photos and bar graphs showing differential roles of endogenous mGluR1 in neuronal toxicity before and after NMDA-induced truncation. Cortical neurons were treated as indicated and were stained with EthD-1 (for dead cells) and calcein AM (for live cells) 24 hours later. * p<0.001.
The downstream signaling pathways of mGluR1α, including release of intracellular calcium and activation of P13K-Akt, are both important for excitotoxicity. Therefore, we postulated that NMDA-induced truncation would alter the role of mGluR1α in neuronal toxicity. To test this possibility, we first co-transfected neurons with GFP and a control vector, wild-type mGluR1α or truncated mGluR1α respectively. […] Twelve hours after treatment, neurons were stained with 0.5 μM EthD-1 for 10 minutes to label dead cells. The numbers of GFP-expressing neurons and EthD-1 positive GFP-expressing neurons on each 18×18 mm coverslip were counted to calculate the percentage of dead cells. […] In neurons co-transfected with control vector, 35% (n=9, on average, there were 405 GFP-expressing neurons counted on each coverslip) of GFP-expressing neurons were positive for EthD-1 staining and therefore had died. In neurons co-transfected with wild-type mGluR1α, only 15% of neurons (n=8, in average, there were 428 GFP-expressing neurons counted on each coverslip) were EthD-1 positive, an effect that was statistically different from that in neurons co-transfected with control vector (p<0.01, Student's t-test). […] Therefore it was difficult to determine the exact location of cell bodies and the live/dead ratios in those neurons.

**Q.** Which “prevention of NMDA-mediated neurotoxicity” value [1] does the source give for “YGRKKRRQRRRVIKPLTKSYQGSGK [tat-mGluR1 peptide]” here?
**A.** almost completely prevented

**Q.** What about the “reduction of kainic acid-induced mGluR1 truncation” value [2] of the same compound?
**A.** significantly reduced

**Q.** And the “effect on kainic acid-induced neuronal damage (silver staining of pyramidal cell layer)” value ([3]; peptide 100 mg/kg i.p. 90 min before kainic acid 30 mg/kg s.c., 7 days)?
**A.** dramatically reduced; also recorded: significantly reduced

**Q.** And the “effect on severity or duration of kainic acid-induced seizures” value ([3]; peptide i.p. 90 min before kainic acid)?
**A.** did not influence

**Q.** What about the “prevention of calpain-mediated mGluR1 truncation” value [4] of the same compound?
**A.** prevented

**Q.** What about the “prevention of calpain-mediated spectrin degradation” value [5] of the same compound?
**A.** not

**Q.** And the “neuroprotection assessed with LDH release” value [6]?
**A.** complete neuroprotection

**Q.** What about the “neuroprotection assessed with PI uptake” value [6] of the same compound?
**A.** complete neuroprotection

**Q.** What about the “block of OGD-induced mGluR1 truncation” value [7] of the same compound?
**A.** almost completely blocked

**Q.** And the “block of OGD-induced mGluR1 truncation” value ([7]; listed as TAT-mGluR1α fusion peptide)?
**A.** partially restored

**Q.** `N[C@@H](CCC(=O)O)C(=O)O` [glutamate] was tested. Which “time at which mGluR1α truncation was apparent after glutamate treatment” value [8] did it give?
**A.** 1 min

**Q.** And the “levels of native mGluR1α” value ([8]; 60 min (1 hour))?
**A.** almost completely disappeared; also recorded: significant reduction

**Q.** And the “levels of mGluR5” value [9]?
**A.** not significantly altered

**Q.** And the “changes to vGluT1” value [10]?
**A.** no significant changes

**Q.** What about the “EthD-1 positive GFP-expressing neurons (dead cells)” value ([11]; co-transfected with control vector) of the same compound?
**A.** 35%

**Q.** What about the “EthD-1 positive GFP-expressing neurons (dead cells)” value ([11]; co-transfected with mGluR1α936Δ) of the same compound?
**A.** 59%

**Q.** And the “EthD-1 positive GFP-expressing neurons (dead cells)” value ([11]; co-transfected with wild-type mGluR1α)?
**A.** 15%
